The subject of one test is tumor and malaria. The settings on record: mice; cited from earlier work.
A further test has as its system serum cytokines. The settings on record: mice, cited from earlier work.
Another test relates to M. tuberculosis H37Rv. The conditions noted are these: in vivo.
A further test concerns malarial parasite. The settings on record: mice, αGalCer as a therapeutic; cited from earlier work.
The subject of a further test is M. tuberculosis. The settings on record: αGalCer as a therapeutic; cited from earlier work.

The structures appear in SMILES notation.

`CCCCCCCCCCCCCCCCCCCCCCCCCC(=O)N[C@@H](CCC1OC(CO)C(O)C(O)C1O)[C@H](O)[C@H](O)CCCCCCCCCCCCCC` (stereo partly drawn) [α-C-GalCer, (2S,3S,4R)-1-CH2-(α-galactopyranosyl)-N-hexacosanoyl-2-amino-1,3,4-octadecanetriol]: in the test with tumor and malaria, the “anti-tumor and anti-malarial activity compared with αGalCer” value is “superior anti-tumor and anti-malarial activity as compared to αGalCer”. For the same compound, in the test with serum cytokines (compared with αGalCer), the “levels of Th1 cytokines IL-12 and IFNγ” value is listed as “induces higher levels”. Moreover, the “improvement of the protective efficacy of BCG, comparison of the two glycolipids” value in the test on M. tuberculosis H37Rv is on record as “superior to αGalCer”.

In the case of `CCCCCCCCCCCCCCCCCCCCCCCCCC(=O)N[C@@H](CO[C@H]1O[C@H](CO)[C@H](O)[C@H](O)[C@H]1O)[C@H](O)[C@H](O)CCCCCCCCCCCCCC` [αGalCer, (2S,3S,4R)-1-O-(α-D-galactopyranosyl)-N-hexacosanoyl-2-amino-1,3,4-octadecanetriol], the malarial parasite load result with malarial parasite is given as “reduce malarial parasite load”. Moreover, the “survival of M. tuberculosis infected mice” value in the test with M. tuberculosis is “prolong the survival”. In addition, in the test on serum cytokines (single injection), the “serum cytokines after a single injection (IFNγ, IL-12 and IL-4)” value was “induces a cytokine storm in the serum”.

These data come from US9139809B2, “Bacterial vaccines with cell wall-associated ceramide-like glycolipids and uses thereof” (priority 2009, dated 2015).
